# Test system: T1, Na+-stimulated ATPase (likely F1F0-ATPase)
# T1 construct: gene atpD
# Experiment: inorganic phosphate release, Lineweaver-Burk plot
# Type: biochemical, Aphanothece halophytica
# Conditions: 20 mM Tris-HCl pH 7.6, 5 mM MgCl2, 10 mM NaCl; detergent-solubilised enzyme; read-out: apparent Km
smiles,measurement,value
Nc1ncnc2c1ncn2[C@@H]1O[C@H](COP(=O)(O)OP(=O)(O)OP(=O)(O)O)[C@@H](O)[C@H]1O [ATP],Km,1.2 mM
